The data set can be described thus: in vitro. As to conditions: human, hela cells, % viability.

`CCOC(=O)C1CCCN(CCC(=O)Nc2cccc(F)c2)C1` (centres unmarked) [CBK264275C]: the viability at 28.5 h, 10 µM worked out at 107%.
The figure for `COc1cc2c3c(cccc3c1)CC(C)(N(C)C)C2` (centres unmarked) [CBK024357C] is 105%; for `O=C(C1c2ccccc2Oc2ccccc21)N1C2CCC1CC(O)(c1ccco1)C2` (centres unmarked) [CBK286169] it is 93.8%.
For `c1cncc(-c2nnc([C@H]3CCN(C4CCOCC4)C3)o2)c1` [CBK289398], the viability at 28.5 h, 10 µM stood at 93.5%.
The figure for `Cn1c(N2CCOCC2)nc2cc(C(=O)NCCn3cccn3)ccc21` [CBK307033] is 87.5%; for `CCCC/C=C/c1nccnc1N(C)Cc1ccccc1` [CBK037412] it is 99.8%.
As for `COc1ccc(OCCCCCN2CCC3(CC2)OCCc2c3[nH]c3ccccc23)cc1` [CBK113517T], the viability at 28.5 h, 10 µM amounted to 0%.
In the case of `O=C(O)CCC(=O)NN1C(=O)c2ccccc2NC1c1ccc(F)cc1` (centres unmarked) [CBK286905] it was 84%.
In the case of `Cc1ccc2c(c1)c(-c1ccccc1)c(-c1ccccc1)n2CC(O)Cn1cnc(-c2ccccc2)c1-c1ccccc1` (centres unmarked) [CBK262531] it was 72.7%; in that of `O=C(c1ccco1)N1CCN(c2cc(-c3cc(C(F)(F)F)cc(C(F)(F)F)c3)ncn2)CC1` [CBK037734], 102%.
Regarding `CCn1cc(CN2CCC(c3cc(Cc4cccc(OC)c4)cc(C)n3)CC2)c(C)n1` [CBK285671], the viability at 28.5 h, 10 µM turned out to be 89.2%.
In the case of `CCc1cnc(CNC(=O)NCc2nc3cc(C)ccc3n2C)s1` [CBK306261] it was 98.9%; in that of `COc1ccc(C(=O)N2C[C@@H](C)O[C@@H](C)C2)c(OC)n1` [CBK200231], 92.2%; in that of `CC(=O)NC(c1nccs1)C1CCCN(C(=O)C2CCCC2)C1` (centres unmarked) [CBK284966], 101%.
Turning to `N=c1c2c3c(sc2ncn1CCCN1CCOCC1)CCCC3` [CBK268323], the viability at 28.5 h, 10 µM turned out to be 94.6%.
Regarding `O=C(c1cc2nc(-c3ccccc3)cc(-c3ccccc3)n2n1)N1CCN(C(=O)c2ccco2)CC1` [CBK269056], the viability at 28.5 h, 10 µM was 99.4%.
As to `Cc1noc(-c2cn(C)nc2C2CCCCN2C(=O)C2CC2)c1C` (centres unmarked) [CBK283410], the viability at 28.5 h, 10 µM was determined as 96.9%.
In the case of `FC(F)(F)c1ccc(N2CCNCC2)nc1SCc1ccccc1Cl` [CBK003964A], the viability at 28.5 h, 10 µM turned out to be 98.2%.
The figure for `CN(C)C(=O)C1CN(C(=O)C(C)(C)c2ccccc2F)C1` [CBK281970] is 113%; for `COc1ccccc1-c1noc(CN2CCCC(C(F)(F)F)C2)n1` (centres unmarked) [CBK305598] it is 93.6%.
In the case of `Cc1ccc(OCC(=O)Nc2cc(Cl)ccc2O)cc1C` [CBK265968] it was 108%.
The figure for `CCC(=O)Nc1ccc(-c2csc(N3CCC(C)CC3)n2)cc1` [CBK306490] is 111%; for `Cc1nn(C)cc1-c1cncn1CCCn1ccnc1C(C)C` [CBK281972] it is 81.6%.
With `COc1ccc(CN(C)CCN(C)C)c(O)c1` [CBK261915], the viability at 28.5 h, 10 µM was found to be 114%.
In the case of `O=S(=O)(NN1CCOCC1)c1cc(Cl)cc(Cl)c1O` [CBK269279] it was 89.8%.
The figure for `CC(CN1CCCCC1)OC(=O)COc1ccc(Br)cc1` (centres unmarked) [CBK265326C] is 96.9%; for `O=C1NN(c2ccc(Br)cc2)C(=O)/C1=C\c1ccc(-c2ccc3c(c2)C(=O)NC3=O)o1` [CBK262968] it is 111%.
The figure for `COCCN1C(=O)CN(Cc2ccccc2)C1=O` [CBK162369] is 95.1%.
With `CCNc1cc2ccccc2c(-c2ccc3c(c2)OCCCO3)n1` [CBK089641], the viability at 28.5 h, 10 µM stood at 99.2%.
In the case of `O=C(Nc1ccccc1N1CCNCC1)C1(c2ccccc2)CCCCC1` [CBK028281T] it was 99.9%; in that of `Cc1nc(CCC(=O)N2Cc3cnn(Cc4ccc(F)cc4)c3C2)n[nH]1` [CBK306993], 109%; in that of `Fc1ccccc1CSc1nnc(-c2cnccn2)n1Cc1ccco1` [CBK267556], 96.4%.
The figure for `O=C(O)C1CCN(Cc2ccc(Cl)cc2)CC1` [CBK286895] is 89.3%.
In the case of `CC(C)(CO)CNc1cncc(-c2cccc(C(F)(F)F)c2)n1` [CBK065248] it was 102%; in that of `COc1ccc(C(=O)N2CCC3(CCCN(CCN4C(=O)c5ccccc5C4=O)C3)C2)cc1OC` (centres unmarked) [CBK132862], 98.1%; in that of `CCCc1cc(C2CCCCCN2C(=O)c2c(C)noc2C)no1` (centres unmarked) [CBK284919], 87.7%.
As to `Cc1noc(NS(=O)(=O)c2ccc(NC(=O)CCN3C(=O)c4ccccc4C3=O)cc2)c1C` [CBK264091], the viability at 28.5 h, 10 µM stood at 96.1%.
In the case of `CN(CC(=O)O)S(=O)(=O)c1ccc2c(c1)OCCO2` [CBK263904] it was 95.8%; in that of `O=[N+]([O-])c1ccccc1CS(=O)(=O)Nc1ccc(-c2nnn[nH]2)cc1` [CBK155430], 94.5%.
In the case of `OCCOc1cccc(-c2nnco2)c1` [CBK000033] it was 98.6%; in that of `CCN(CC)CCNC(=O)C1CCCCN1S(=O)(=O)c1ccc(C)cc1` (centres unmarked) [CBK101088], 89.9%.
The figure for `O=S(=O)(NCCc1cccs1)c1cc2c(N3CCNCC3)nccc2s1` [CBK041299C] is 104%.
Take `Cc1cc(C)n2c(SCc3ccccc3)nnc2n1` [CBK025780]: the viability at 28.5 h, 10 µM worked out at 82%.
The figure for `O=[N+]([O-])c1ccc(S(=O)(=O)CC(CN2CCCCC2)N2CCCCC2)cc1` (centres unmarked) [CBK267070] is 100%.
In the case of `O=C(CN1CCOCC1)Nc1c2c(nc3ccccc13)N(c1ccccc1)CC2` [CBK111136G] it was 87.9%.
In the case of `COCCNS(=O)(=O)c1cc(OCC(N)=O)c(C)cc1Cl` [CBK266461] it was 99.3%; in that of `COC(=O)c1c(-c2ccc(F)cc2)csc1NC(=O)CSc1ncnc2sc3c(c12)CCC3` [CBK265976], 103%; in that of `CC1CCCN(C(=O)c2coc(COc3ccc(F)cc3)n2)C1` (centres unmarked) [CBK306874], 85.5%.
For the compound `C/C(=C1/SC(=S)N(c2cccc(C(=O)O)c2)C1=O)c1cccc([N+](=O)[O-])c1` [CBK265168], the viability at 28.5 h, 10 µM is 100%.
Turning to `CCC(=O)N1CCc2cc(C(O)CN3CCCC3)ccc21` (centres unmarked) [CBK283110], the viability at 28.5 h, 10 µM was determined as 97.7%.
In the case of `COc1ccccc1CN1CCCC(c2nc(C)n3ccccc23)C1` (centres unmarked) [CBK283026] it was 87.6%; in that of `Cc1ccc(C2=CCN(CC(N)=O)CC2)o1` [CBK283570], 98.3%.
The figure for `O=C(NCCNc1ccc([N+](=O)[O-])cc1Cl)c1ccc(F)cc1` [CBK262344] is 86.6%.
As for `CC(Oc1ccc(Cl)cc1Cl)C(=O)Nc1ccc2oc(-c3ccncc3)nc2c1` (centres unmarked) [CBK266768], the viability at 28.5 h, 10 µM came out at 109%.
In the case of `N#CCCCN1CCC(Oc2nccnc2OCc2ccc(-c3ccccc3)cc2)CC1` [CBK161566] it was 95.4%.
In the case of `COc1ccc(C2=NN(c3ccccc3)C(c3ccc(OC)c(OC)c3C(=O)O)C2)cc1` (centres unmarked) [CBK262679] it was 89.3%; in that of `N=C(N)SCc1ncccc1O` [CBK278318C], 102%; in that of `CN(C)CCNC(=O)c1cccc(-c2cnc(N)c(N3CCN(C)CC3)n2)c1` [CBK063393], 95%.
The figure for `O=c1cc(N2CCN(CC3CCOC3)CC2)c(-c2ccccc2)n[nH]1` (centres unmarked) [CBK306957] is 91.5%.
Take `Cc1cc(COc2nccnc2N2CCN(Cc3ccc([N+](=O)[O-])cc3)CC2)no1` [CBK084189]: the viability at 28.5 h, 10 µM was found to be 92%.
Turning to `O=C(CCOc1ccc(F)cc1)Nc1cnc(-c2ccc(F)cc2)c(-c2ccoc2)n1` [CBK037166], the viability at 28.5 h, 10 µM was determined as 91.9%.
The figure for `COc1ccc(-c2nc(-c3ccncc3)ncc2C(=O)NC2CCCCC2)cc1` [CBK291111] is 95.4%; for `O=C(CSCc1nc(O)c2c3c(sc2n1)CCCC3)NC1CCCCC1` [CBK265684] it is 83.5%.
The figure for `CN(Cc1cnn(C)c1)C(=O)c1cc(O)nc2ccccc12` [CBK251706] is 106%; for `CC(=O)c1ccccc1OCCOCCN1CCCC(C)C1` (centres unmarked) [CBK269625C] it is 106%.
In the case of `COc1ccccc1C(=O)N1CCC(Cc2ccc(-c3ccccc3)cc2)(C(N)=O)CC1` [CBK285774] it was 100%; in that of `O=C(NCC1CCNCC1)c1ccncc1` [CBK267637C], 95%.
With `COc1ccc(C(=O)N2CCC3(CCCN(C(=O)c4cccnc4)C3)C2)cc1OC` (centres unmarked) [CBK131668], the viability at 28.5 h, 10 µM stood at 97.8%.
In the case of `NC(=O)c1c(NC(=O)COc2ccc3ccccc3c2)sc2c1CCCCC2` [CBK265380], the viability at 28.5 h, 10 µM is 112%.
In the case of `O=C(Nc1ccccc1)N1Cc2nc[nH]c2C[C@H]1c1nc(-c2ccccc2)no1` [CBK288997] it was 84.3%.
In the case of `CN1CCN(Cc2c(-c3ccc(F)cc3)[nH]c3ncccc23)CC1` [CBK285335] it was 85.4%.
The figure for `O=c1[nH]ccn2nc(-c3ccc4c(c3)OCO4)cc12` [CBK288048] is 87.7%; for `O=C(Nc1sccc1C(=O)N1CCOCC1)C(Sc1ccccc1)c1ccccc1` (centres unmarked) [CBK268165] it is 95%; for `O=[N+]([O-])c1cccnc1Oc1cccc2cccnc12` [CBK002760] it is 97.4%.
For `Cc1cn(C2CC(O)C(C3N(c4ccccc4)CCN3c3ccccc3)O2)c(=O)[nH]c1=O` (centres unmarked) [CBK201232], the viability at 28.5 h, 10 µM was determined as 99.2%.
In the case of `Clc1nccnc1N1CCCC1` [CBK083594] it was 101%; in that of `CCSC(C)CC1C/C(=N/O)c2c(C)noc2C1` (centres unmarked) [CBK021455], 88.4%.
In the case of `CC(NC(=O)N(Cc1c[nH]c(-c2ccccc2)n1)CC(C)(C)CN)c1cccc2ccccc12` (centres unmarked) [CBK026801C] it was 96.3%; in that of `CC1Cc2ccccc2N1C(=O)CSc1nnc(N)s1` (centres unmarked) [CBK269530], 94.3%; in that of `COc1ccc(C)cc1N1CCCN(c2cc(C)ccc2OC)C1=O` [CBK006937], 84.8%.

As a reminder, the viability is a read-out of living cells in per cent, often relative to untreated cells.

The record behind these values is publication PMC12040169 (PLOS Biology, 2025).
